Measurements taken from patent US6984649B1, “Pyridine derivatives” (Bayer Aktiengesellschaft, priority 2000, dated 2006).
Structures can show the parent of a compound that is named as a salt.

What follows are molecules tested on A549 human lung epithelium cell line (assay: RANTES production in response to TNF-α from A549 cells). Conditions: Homo sapiens, A549, A549 cells, 100 ng/ml TNF-α, read-out: Cellular activity grade (A549) (Cellular IC50).
Assay type: cell-based
How it was run: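 RANTES released into supernatant was measured by DELFIA-type sandwich immunoassay, Eu-labelled detection antibody, 340 nm excitation/615 nm emission, recombinant RANTES standard. Beforehand, cells seeded at 4×10^4/well received test compound (1% DMSO) for 1 h at 37 °C, followed by 24 h TNF-α (100 ng/ml) stimulation.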
For CS(=O)(=O)NC(=O)c1cc2c(C3CCCNC3)cc(-c3c(O)cccc3OCC3CC3)nc2[nH]c1=O (centres unmarked) [Example 31-2, N-{[7-[2-(cyclopropylmethoxy)-6-hydroxyphenyl]-2-oxo-5-(3-piperidinyl)-1,2-dihydro-1,8-naphthyridin-3-yl]carbonyl}methanesulfonamide hydrochloride], the IC50 was 1 to 10 µM. Work on Nc1ncnc2nc(-c3c(O)cccc3OCC3CC3)cc(C3CCCNC3)c12 (centres unmarked) [Example 32-1, 2-[4-amino-5-(3-piperidinyl)pyrido[2,3-d]pyrimidin-7-yl]-3-(cyclopropylmethoxy)phenol hydrochloride] yielded an IC50 of 1 to 10 µM. With N#Cc1ccc(-c2ccccc2O)nc1N [Example 33-1, 2-amino-6-(2-hydroxyphenyl)nicotinonitrile] the IC50 was 1 to 10 µM. With N#Cc1c(N2CCOCC2)cc(-c2ccccc2O)nc1N [Example 34-1, 2-amino-6-(2-hydroxyphenyl)-4-(4-morpholinyl)nicotinonitrile] the IC50 was > 10 µM. With N#Cc1c(N2CCC(C(N)=O)CC2)cc(-c2ccccc2O)nc1N [Example 34-2, 1-[2-amino-3-cyano-6-(2-hydroxyphenyl)-4-pyridinyl]-4-piperidinecarboxamide] the IC50 was > 10 µM. For N#Cc1c(N2CCCC(N)C2)cc(-c2ccccc2O)nc1N (centres unmarked) [Example 34-3, 2-amino-4-(3-amino-1-piperidinyl)-6-(2-hydroxyphenyl)nicotinonitrile hydrochloride], the IC50 was 1 to 10 µM. In the case of N#Cc1c(NC2CCCNC2)cc(-c2ccccc2O)nc1N (centres unmarked) [Example 34-4, 2-amino-6-(2-hydroxyphenyl)-4-(3-piperidinylamino)nicotinonitrile hydrochloride], the IC50 is reported as < 1 µM. For NCCNc1cc(-c2c(O)cccc2OCC2CC2)nc2c1COC(=O)N2 [Example 35-1, 5-[(2-aminoethyl)amino]-7-[2-(cyclopropylmethoxy)-6-hydroxyphenyl]-1,4-dihydro-2H-pyrido[2,3-d][1,3]oxazin-2-one hydrochloride], the IC50 was < 1 µM.
